Laboratory results published in patent US20050053668A1, “Skeletally targeted nanoparticles” (Southwest Research Institute, priority 2003, published 2005).
Each block holds one compound with its values, some of them ahead of it.

What was measured:
[1] = assay type: physicochemical
Procedure: Lovastatin was encapsulated in MBP-lipid conjugate micelles at ratios ranging from about 1:1 to 1:50 mol:mol lovastatin:lipid using the phase separation technique. All preparations initially produced clear, colorless solutions, indicating complete solubilization of lovastatin by the lipid. However, over time, usually within about 24 hours, needle-like crystals were observed on the surface of the fluid. […] The crystals were confirmed to be lovastatin by HPLC analysis.

hindlimb unloaded rats = details: cited from earlier work
unloaded bones = details: infusion; cited from earlier work
myeloma cell = details: in vitro; cited from earlier work
panel of tumor cells = details: cited from earlier work
[2] = cited from earlier work

amount of stabilized lovastatin after ageing [1]: increased slightly
lovastatin stabilized in micelles [1]: about 0.03 μg/μg of lipid
lovastatin stabilized in micelles, molar ratio [1]: ~1:5 mol:mol lovastatin:lipid
lovastatin encapsulated before free drug precipitates ([1]; micelles of MBP-based ligand-phospholipid conjugate, FIG. 9): about 0.03 μg of lovastatin/μg of lipid
time until needle-like lovastatin crystals were observed ([1]; preparations 1:1 to 1:50 mol:mol lovastatin:lipid): ≤ 24 h
Compound: CC[C@H](C)C(=O)O[C@H]1C[C@@H](C)C=C2C=C[C@H](C)[C@H](CC[C@@H]3C[C@@H](O)CC(=O)O3)[C@H]21 [lovastatin]

Compound: TGF-β
effect on bone formation in control animals (hindlimb unloaded rats; infusion 2 μg/kg/day, control animals): has no effect on bone formation
effect on unloading-induced bone changes (hindlimb unloaded rats; infusion 2 μg/kg/day, hindlimb unloading in rats): corrects the decrease in bone mass, calcium content, osteoblast number and mineralization rate
effect on indices of bone resorption (hindlimb unloaded rats; infusion, normal and unloaded rats): decreases the indices of bone resorption

Compound: IGF-1: insulin-like growth factor, regulates bone formation
dose required to demonstrate any protective effect against unloading (unloaded bones): 2 mg/kg/day

Compound: CC(C)C[C@H](NC(=O)[C@H](Cc1ccccc1)NC(=O)c1cnccn1)B(O)O [PS-341]
inhibition of myeloma cell growth and survival (myeloma cell): potent inhibitor
cytotoxicity (panel of tumor cells): cytotoxic
side-effects in clinical use [2]: thrombocytopenia, peripheral neuropathy, hypotension, and, in severe cases, cardiovascular toxicity
